# Measured values taken from US20250228858A1, “ANTI-CANCER COMBINATION THERAPY” (Boehringer Ingelheim International GmbH, priority 2023, published 2025).
# Experiments:
# [1] = tested on: T-DXd-resistant NCI-N87 cells; assay: Proliferation assay (CellTiter Glo), T-DXd resistant NCI-N87 cells; type: cell-based, human; settings: 5 days of incubation, in vitro
# Protocol: Per well, 1000 cells are seeded in 40 μL medium in white, sterile 384-well culture plates (TC-treated; PerkinElmer #6007680) and incubated overnight in a humidified incubator at 37° C. and 5% CO2. 0.1% DMSO-control or serial compound dilution in triplicates are added. […] After 5 days of incubation with test compounds, the cells plates are measured upon addition of CellTiter Glo Luminescent Cell Viability Reagent (Promega, #G9243) to assess cell viability. The plates are placed on a shaker for five minutes and additionally incubated for 10 minutes at room temperature to induce cell lysis and to stabilize the luminescent signal. The luminescent signal of each well is measured in an EnSpire Multilabel Plate Reader 658 (PerkinElmer). The dose response curves are fit and visualized using Boehringer Ingelheim's proprietary software MegaLab and PRISM (GraphPad Inc.).
# [2] = tested on: HER2-overexpressing human breast cancer cell line HCC1954; type: in vivo; settings: zongertinib 20 mg/kg qdx21 p.o., T-DXd 1 mg/kg q21dx1 i.v., pertuzumab 20 mg/kg q7dx3 i.p., alone or combined
# Protocol: Day 1 was the first day, day 21 the last day of treatment and final day of analysis.
# Cells are cultured in T75, T175 and 5-Layer tissue culture flasks at 37° C. and 5% CO2.
# (§1) The statistical evaluation of the tumor volume and the body weight is conducted on day 21 (last day of the study). Apart from this, statistical analysis was performed as described in Example 1 (see paragraph 1.1.7), with no evaluation of tumor growth after stop of treatment.
# [3] = tested on: HER2-overexpressing human NSCLC cell line Calu-3; assay: Calu-3 subcutaneous xenograft, zongertinib with trastuzumab and/or pertuzumab; type: in vivo, CB-17/Icr-Prkdc^scid mice; settings: day 42, zongertinib 20 mg/kg qdx42 p.o., trastuzumab 20 mg/kg q7dx6 i.p., pertuzumab 20 mg/kg q7dx6 i.p., alone or combined
# Protocol: The study is performed in human NSCLC cell line Calu-3 grown as subcutaneous xenografts in CB-17/Icr-Prkdc^scid mice. Day 1 was the first day, day 42 the last day of treatment and final day of analysis.
# Calu-3 is a HER2-overexpressing human NSCLC cell line that can be obtained from ATCC (lot 614492062). Cells are cultured in T75, T175 and 5-Layer tissue culture flasks at 37° C. and 5% CO2. The medium used is EMEM (Lonza BE12-662F) supplemented with 10% FCS (Cytiva HyClone Characterized FBS, SH30084.03n), 2 mM Glutamax (Gibco 35050-038), 0.5 mM sodium pyruvate (Sigma S8636). Cultures are split once weekly with a ratio of 1:1.5-1:2.
# To establish subcutaneous tumors, Calu-3 cells are harvested by centrifugation, washed and resuspended in PBS+5% FCS at 7×10^7 cells/ml. 50 μl cell suspension containing 3.5×10^6 cells is injected subcutaneously into the right flank of mice (1 site per mouse).
# (§2) Mice in the control group are treated with vehicle, i.e.: • (i) 0.5% Natrosol, administered once daily for the duration of the treatment intragastrally by gavage needle with a volume of 10 ml/kg body weight; and • (ii) saline (0.9%), administered once every week intraperitoneally with a volume of 10 ml/kg.
# Tumor volumes and side effects are monitored as described in Example 1 (see paragraph 1.1.6).
# as §1
# [4] = tested on: HER2-overexpressing human breast cancer cell line BT-474; type: in vivo; settings: alone or combined
# Protocol: The study is performed in human breast cancer cell line BT-474 grown as orthotopic xenografts in NMRI-Foxn1^nu mice. Day 1 was the first day, day 42 the last day of treatment and final day of analysis.
# BT-474 is a HER2-overexpressing human breast cancer cell line that can be obtained from ATCC (lot #61136823). Cells are cultured in T75, T175 and 5-Layer tissue culture flasks at 37° C. and 5% CO2. The medium used is Hybri-Care (ATCC, 46-X) supplemented with 1.5 g/L sodium bicarbonate (GIBCO, Ref.: 25080-060) and 10% FCS (Cytiva HyClone Characterized FBS, SH30084.03n). Cultures are split twice weekly with a ratio of 1:2-1:3.
# To establish subcutaneous tumors, BT-474 cells are harvested by centrifugation, washed and resuspended in PBS+5% FCS at 5×10^7 cells/ml. […] cell suspension containing 5×10^6 cells is injected orthotopically into the right mammary fat pad of isoflurane anesthetized mice (1 site per mouse).
# Pertuzumab can be purchased from Roche Pharma AG. Pertuzumab is diluted with saline (0.9%) and administered intraperitoneally with a volume of 10 ml/kg.
# as §2, with “every 3 weeks intravenously into the tail vein with a volume of 5 ml/kg; and • (iii) saline (0.9%), administered once every” for “every”
# Tumor volumes and side effects are monitored as described in Example 1 (see paragraph 1.1.6), except that control animals are sacrificed when the median tumor volume of the group reaches a size of approximately 470 mm^3.
# The statistical evaluation of the tumor volume and the body weight is conducted on day 42 (last day of the study). Apart from this, statistical analysis was performed as described in Example 1 (see paragraph 1.1.7), with no evaluation of tumor growth after stop of treatment.
# [5] = tumors regressed/total (partial response)
smiles,measurement,setting,value
"C=CC(=O)NC1CCN(c2ncc3ncnc(Nc4ccc(Oc5ccc6c(c5)ncn6C)c(C)c4)c3n2)CC1 [Zongertinib, N-{1-[8-({3-methyl-4-[(1-methyl-1H-1,3-benzodiazol-5-yl)oxy]phenyl}amino)-[1,3]diazino [5,4-d]pyrimidin-2-yl]piperidin-4-yl}prop-2-enamide]",difference in IC50 between parental and T-DXd-resistant NCI-N87 cells,[1],less than 10 fold
same,"sensitivity (dose response, cell viability)",[1],sensitive
same,TGI,[2]; day 21,68%
same,Regressions >30%,[2]; [5],0/8
same,Regressions >30%,[3]; [5],0/10
same,TGI,[3],64%
same,Regressions >30%,"[4]; day 42, tumors regressed/total (partial response), zongertinib 10 mg/kg qdx42 p.o., T-DXd 1 mg/kg q21dx2 i.v., pertuzumab 20 mg/kg q7dx6 i.p.",0/8
same,stable disease (tumors remained stable),"[4]; day 42, zongertinib 10 mg/kg qdx42, T-DXd 1 mg/kg q21dx2",2 out of 8
same,TGI,"[4]; day 42, zongertinib 10 mg/kg qdx42 p.o., T-DXd 1 mg/kg q21dx2 i.v., pertuzumab 20 mg/kg q7dx6 i.p.",70%
same,effect on tumor growth (median tumor volumes over time),"[4]; zongertinib 10 mg/kg qdx42, T-DXd 1 mg/kg q21dx2, pertuzumab 20 mg/kg q7dx6","delayed tumor growth, but median tumor volumes increased in the course of the experiment"
